Assay results taken from patent US20120171133A1, “Modulation of Dynein in Skin” (AVON PRODUCTS, INC., priority 2010, published 2012).

Legend:
[1] = test system: mRNA for the heavy chain DYNC1H1 of cytoplasmic dynein; test: Dynein modulation assay (Panomics Quantigene multiplex, branched DNA) in keratinocytes; type: cell-based, human; conditions: for Effect (down-regulation scale) / Effect (up-regulation scale): keratinocytes (K), 24 hours
Method: (§1) Normal human dermal fibroblasts or keratinocytes were cultured in 96-well tissue culture treated plates, containing appropriate culture medium. Stock solution of actives were made in an appropriate vehicle (water/Ethanol/Propylene glycol). Cells were treated with test material or respective vehicle control diluted in growth medium for 24 hours in a humidified 37° C. Incubator with 10% CO2. After incubation, growth medium from each plate was removed and 100 μL of lysis buffer was added to the wells and placed in 37° C. Incubator with 10% CO2 for 30 minutes. At the end of incubation, the cells are collected in freezer plates and placed in −80° C. freezer, until analysis. Changes in mRNA for Dynein after treatment were analyzed using Panomics Quantigene multiplex assay that employs a branched DNA technology, following manufacturer's instructions (Affymetrix, Calif.). Percent increase (up-regulation) or decrease (down-regulation) in mRNA for the heavy chain DYNC1H1 of cytoplasmic dynein was calculated by comparing the test results to the control. The percent up-regulation or down-regulation is converted to a scaled score as shown below in Table 3.

[2] = test system: mRNA for the heavy chain DYNC1H1 of cytoplasmic dynein; test: Dynein modulation assay (Panomics Quantigene multiplex, branched DNA) in fibroblasts; type: cell-based, human; conditions: fibroblasts (F), 24 hours
Method: as §1

CC/C=C\CCCCCO [cis-6-Nonenol]
Effect (down-regulation scale) ([1]; Conc. 0.0001%): − (21-40)

CCCCc1ccc(C(=O)Nc2cccc(C3NC(=S)N(C)C(C)=C3C(=O)OCCOC)c2)cc1 (stereo not shown) [Compound 3]
Effect (up-regulation scale) ([2]; Conc. 0.00005%): ++ (41-60)

CCCCC(CC)C(=O)Nc1ccc(N2CCN(C(=O)C3CCCCC3)CC2)cc1 (stereo not shown) [Compound 7]
Effect (down-regulation scale) ([1]; Conc. 0.00005%): − (21-40)

O=C(O)c1cc(Cl)ccc1O [5-Chlorosalicylic acid]
Effect (down-regulation scale) ([1]; Conc. 0.1%): −− (41-60)
reduction of mRNA for the heavy chain DYNC1H1 of cytoplasmic dynein ([1]; keratinocytes, p=0.02): 45.03%

CCc1ccccc1NC(=O)N(Cc1ccc(OS(C)(=O)=O)cc1)CC(C)C [Compound 8]
Effect (down-regulation scale) ([2]; Conc. 0.0005%): − (21-40)

CCOc1ccc(C(=O)CC(Sc2ccc(Cl)cc2)C(=O)O)cc1 (stereo not shown) [Compound 5]
Effect (up-regulation scale) ([2]; Conc. 0.00001%): ++ (41-60)

CCC=CCC=CCCO [3,6-Nonadienol]
Effect (down-regulation scale) ([2]; Conc. 0.01%): − (21-40)

CCCCCCCC(=O)Nc1ccc(N2CCN(C(=O)CC(C)(C)C)CC2)cc1 [Compound 2]
Effect (up-regulation scale) ([1]; Conc. 0.0005%): ++ (41-60)

CC1=C(CC/C(C)=C/COC[C@@H](O)[C@@H](O)[C@H](O)[C@H](O)CO)C(C)(C)C(C)CC1 (stereo partly drawn) [Chalmicrin, 1-O—[(E)-3-Methyl-5-(2,5,6,6-tetramethyl-1-cyclohexen-1-yl)-2-pentenyl]-D-mannitol]
Effect (up-regulation scale) ([1]; Conc. 0.0001%): ++++ (>81)

CC(C)CN(Cc1ccc(OS(C)(=O)=O)cc1)S(=O)(=O)c1ccccc1 [Compound 1]
Effect (up-regulation scale) ([2]; Conc. 0.00005%): ++ (41-60)

CCOCCCNC(=O)c1coc(CN(CCCOCC)C(=O)Nc2ccccc2C)n1 [Compound 4]
Effect (up-regulation scale) ([2]; Conc. 0.00005%): ++ (41-60)

CCOCCCNC(=O)c1coc(CN(CCCOCC)C(=O)c2cccc(Br)c2)n1 [Compound 6]
Effect (down-regulation scale) ([1]; Conc. 0.0005%): − (21-40)
